The results in this text go back to patent EP0461827B1, “Hair restorer” (KABUSHIKI KAISHA HAYASHIBARA SEIBUTSU KAGAKU KENKYUJO, priority 1990, dated 1991).

Series [1] concerns volunteers with alopecias. Kind of series: 3-month clinical test of a hair restorer lotion in volunteers with alopecias. The following applies: for Therapeutic efficacy (Number of volunteers) Recovery / Therapeutic efficacy (Number of volunteers) Moderate recovery / Therapeutic efficacy (Number of volunteers) Not effected / Therapeutic efficacy (Number of volunteers) Unfavorable: 3-month, lotion with 1.0 part of ingredient, 3 times a day; for Therapeutic efficacy (Number of volunteers) Recovery: hair newly regenerated, apparently free from alopecia; for Therapeutic efficacy (Number of volunteers) Moderate recovery: moderate hair regeneration, no recurrence of alopecia; for Therapeutic efficacy (Number of volunteers) Not effected: no regeneration of hair; for Therapeutic efficacy (Number of volunteers) Unfavorable: side effect or acceleration of alopecia found; for cure rate (%): percentage of volunteers with recovery and moderate recovery against total number of each group. The series is classed as in vivo, human. From the text: Based on the results in Experiment 1, 20 randomly chosen volunteers with alopecias (10 men and 10 women) as the recipient received 3-month clinical test. The volunteers were 15-66 years old.
The symptom of the volunteers, who had received a pharmacotherapy or physiotherapy at a department of dermatology, were the male alopecia such as senile alopecia and alopecia prematura, and alopecia areata such as multiple alopecia areata and malignant alopecia areata.
Since the symptom of the volunteers with a slight alopecia areata may be spontaneously recovered, the volunteers with a relatively small alopecic site and those with the atrophia cutis or atrophic pores which were not clinically observed were excluded in this Experiment.
The procedure of therapeutic treatment used in this Experiment is carried out according to conventional procedure:
Forty-five parts of ethanol, 2 parts of glycerine, 55 parts of refined water, and 1.0 part of 2-O-α-D-glucosyl-L-ascorbic acid or α-glucosyl bioflavonoid prepared by the method in Example of Preparation 2, 4, 6 or 8, were mixed, and the mixture was adjusted to pH 6.7 by the addition of 6N sodium hydroxide to obtain a hair restorer for external application in lotion form. When the volunteers received a physical examination, their affected sites were applied a thin coat of the hair restorer, massaged and exposed to an artificial sunlight. Furthermore, the volunteers were instructed to apply the hair restorer to the affected sites 3 times a day at home.
As control, a hair restorer for external application containing intact L-ascorbic acid or bioflavonoid in place of 2-O-α-D-glucosyl-L-ascorbic acid or α-glucosyl bioflavonoid in the above hair restorer was used.

Another series deals with rabbits. Kind of series: Hair regeneration on depilated dorsum of rabbits, lotion applied once daily. The format is in vivo. The following applies: 1% in 50% aqueous ethanol with 2% propyleneglycol, pH 6.7, 1ml once every day, difference to untreated area; for Mean remainder of hair length (mm) 10th (day): 10th day after application; for Mean remainder of hair length (mm) 20th (day): 20th day after application; for Mean remainder of hair length (mm) 30th (day): 30th day after application. The method, then:
Either of an α-glycosyl-L-ascorbic acid or an α-glycosyl bioflavonoid prepared by the method in Example of Preparation 1-8 was dissolved to give a concentration of 1% in a 50% aqueous ethanol solution containing 2% propyleneglycol, and the mixture was adjusted to pH 6.7 by the addition of 6N sodium hydroxide to obtain a solution in hair lotion form. As control, a solution in hair lotion form was prepared similarly as above, except that α-glycosyl-L-ascorbic acid and α-glycosyl bioflavonoid were replaced with either of intact L-ascorbic acid, bioflavonoid and refined water.
The dorsum surgace of rabbits was sectioned into four areas, 5cm^2 each, i.e. two areas near at head side and two areas near at tail side which were respectively bisymmetrical about the vertebral columns of the rabbits, and the four areas were depilated by applying thereto silver cream (a depilatory agent) and subjecting them to brief standing. The depilated areas were first sufficiently washed with water, then the depilated areas of the right area near at head side, the left area near at head side, and the right area near at tail side were respectively applied once every day by using a paintbrush with 1ml of the test solution, 1ml of the control solution containing refined water, and 1ml of the control solution containing L-ascorbic acid or bioflavonoid. Furthermore, the left area near at tail side was untreated.
The application of each solution was started on the second day after the depilation, and the newly regenerated hairs were depilated to count on the 10th, 20th and 30th days after the application. The length of 10 coarse hairs regenerated in each area was measured with a micromanipulator, and expressed by the mean remainder of hair length (mm) between the hair length in the area which had been applied with a sample solution and that in the area which had been untreated.
In addition, it has been known that the growth rates of hairs in the bisymmetrical dorsum surfaces about the vertebral column of a rabbit is in the same level, and those in both sexes are also in the same level.

In series [2] the test system is α-glucosidase which had been extracted from a pig liver.

On to `C[C@@H]1O[C@@H](OC[C@H]2O[C@@H](Oc3c(-c4ccc(O)c(O)c4)oc4cc(O)cc(O)c4c3=O)[C@H](O)[C@@H](O)[C@@H]2O)[C@H](O)[C@H](O)[C@H]1O` [Rutin, 3-[[6-O-(6-deoxy-α-L-mannopyranosyl)-β-D-glucopyranosyl)]oxy-2-(3,4-dihydroxyphenyl)-5,7-dihydroxy-4H-1-benzopyran-4-one, reference compound], for which, in series [1], the “Therapeutic efficacy (Number of volunteers) Recovery” value is on record as 0 Number of volunteers, the “Therapeutic efficacy (Number of volunteers) Moderate recovery” value is given as 4 Number of volunteers, the “Therapeutic efficacy (Number of volunteers) Not effected” value is recorded as 13 Number of volunteers and the “Therapeutic efficacy (Number of volunteers) Unfavorable” value is 3 Number of volunteers. Also, in the series on rabbits, the “Mean remainder of hair length (mm) 10th (day)” value is on record as 0.3 mm, the “Mean remainder of hair length (mm) 20th (day)” value was determined as 0.9 mm and the “Mean remainder of hair length (mm) 30th (day)” value amounted to 0.5 mm.

For α-Glucosyl hesperidin, in series [1], the “Therapeutic efficacy (Number of volunteers) Recovery” value is 4 Number of volunteers, the “Therapeutic efficacy (Number of volunteers) Moderate recovery” value is recorded as 11 Number of volunteers, the “Therapeutic efficacy (Number of volunteers) Not effected” value is 5 Number of volunteers and the “Therapeutic efficacy (Number of volunteers) Unfavorable” value is on record as 0 Number of volunteers. Besides, the “cure rate (%)” value in series [1] turned out to be 75%. Moreover, in the series with rabbits, the “Mean remainder of hair length (mm) 10th (day)” value is listed as 2.3 mm, the “Mean remainder of hair length (mm) 20th (day)” value was 7.4 mm and the “Mean remainder of hair length (mm) 30th (day)” value turned out to be 6.7 mm. For the same compound, in series [2], the “hydrolysis by α-glucosidase” value is “formed hesperidin and D-glucose”.

Take `O=C1O[C@H]([C@@H](O)CO)C(O)=C1O` [L-Ascorbic acid, L-ascorbic acid, reference compound]: in series [1], the “Therapeutic efficacy (Number of volunteers) Recovery” value is listed as 0 Number of volunteers, the “Therapeutic efficacy (Number of volunteers) Moderate recovery” value is recorded as 3 Number of volunteers, the “Therapeutic efficacy (Number of volunteers) Not effected” value is on record as 11 Number of volunteers and the “Therapeutic efficacy (Number of volunteers) Unfavorable” value was 6 Number of volunteers. Further, in the series on rabbits, the “Mean remainder of hair length (mm) 10th (day)” value is given as 0.1 mm, the “Mean remainder of hair length (mm) 20th (day)” value is -0.2 mm and the “Mean remainder of hair length (mm) 30th (day)” value came out at 0.5 mm.

Take α-Glucosyl naringin: in series [1], the “Therapeutic efficacy (Number of volunteers) Recovery” value is recorded as 4 Number of volunteers, the “Therapeutic efficacy (Number of volunteers) Moderate recovery” value was 9 Number of volunteers, the “Therapeutic efficacy (Number of volunteers) Not effected” value was 7 Number of volunteers and the “Therapeutic efficacy (Number of volunteers) Unfavorable” value is 0 Number of volunteers. In series [1], the “cure rate (%)” value is 65%. Moreover, in the series with rabbits, the “Mean remainder of hair length (mm) 10th (day)” value stood at 2.1 mm, the “Mean remainder of hair length (mm) 20th (day)” value was 6.6 mm and the “Mean remainder of hair length (mm) 30th (day)” value is 6.3 mm. Further, the “hydrolysis by α-glucosidase” value in series [2] is “hydrolyzed the α-glucosyl naringin into naringin and D-glucose”.

`C[C@@H]1O[C@@H](O[C@H]2[C@H](Oc3cc(O)c4c(c3)O[C@H](c3ccc(O)cc3)CC4=O)O[C@H](CO)[C@@H](O)[C@@H]2O)[C@H](O)[C@H](O)[C@H]1O` [Naringin, reference compound]: in series [1], the “Therapeutic efficacy (Number of volunteers) Recovery” value was 0 Number of volunteers, the “Therapeutic efficacy (Number of volunteers) Moderate recovery” value is reported as 5 Number of volunteers, the “Therapeutic efficacy (Number of volunteers) Not effected” value is listed as 10 Number of volunteers and the “Therapeutic efficacy (Number of volunteers) Unfavorable” value is 5 Number of volunteers. Further, in the series on rabbits, the “Mean remainder of hair length (mm) 10th (day)” value came to 0.1 mm, the “Mean remainder of hair length (mm) 20th (day)” value is 0.5 mm and the “Mean remainder of hair length (mm) 30th (day)” value is reported as -0.2 mm.

As to `COc1ccc(C2CC(=O)c3c(O)cc(OC4OC(COC5OC(C)C(O)C(O)C5O)C(O)C(O)C4O)cc3O2)cc1O` (stereo not drawn) [Hesperidin, reference compound], in series [1], the “Therapeutic efficacy (Number of volunteers) Recovery” value is 0 Number of volunteers, the “Therapeutic efficacy (Number of volunteers) Moderate recovery” value was 3 Number of volunteers, the “Therapeutic efficacy (Number of volunteers) Not effected” value is given as 12 Number of volunteers and the “Therapeutic efficacy (Number of volunteers) Unfavorable” value is reported as 5 Number of volunteers. Besides, in the series with rabbits, the “Mean remainder of hair length (mm) 10th (day)” value was determined as 0.1 mm, the “Mean remainder of hair length (mm) 20th (day)” value was 0.5 mm and the “Mean remainder of hair length (mm) 30th (day)” value came to 0.2 mm.

Turning to `O=C1O[C@H]([C@@H](O)CO)C(O)=C1O[C@H]1O[C@H](CO)[C@@H](O)[C@H](O)[C@H]1O` [2-O-α-D-Glucosyl-L-ascorbic acid], in series [1], the “Therapeutic efficacy (Number of volunteers) Recovery” value is 6 Number of volunteers, the “Therapeutic efficacy (Number of volunteers) Moderate recovery” value is given as 10 Number of volunteers, the “Therapeutic efficacy (Number of volunteers) Not effected” value was 4 Number of volunteers and the “Therapeutic efficacy (Number of volunteers) Unfavorable” value is 0 Number of volunteers. For the same compound, the “cure rate (%)” value in series [1] was 80%. Moreover, in the series on rabbits, the “Mean remainder of hair length (mm) 10th (day)” value turned out to be 2.4 mm, the “Mean remainder of hair length (mm) 20th (day)” value stood at 6.8 mm and the “Mean remainder of hair length (mm) 30th (day)” value is 6.9 mm.

As to α-Glucosyl rutin, in series [1], the “Therapeutic efficacy (Number of volunteers) Recovery” value was 6 Number of volunteers, the “Therapeutic efficacy (Number of volunteers) Moderate recovery” value is 12 Number of volunteers, the “Therapeutic efficacy (Number of volunteers) Not effected” value is 2 Number of volunteers and the “Therapeutic efficacy (Number of volunteers) Unfavorable” value is recorded as 0 Number of volunteers. In series [1], the “cure rate (%)” value is on record as 90%. In addition, in the series on rabbits, the “Mean remainder of hair length (mm) 10th (day)” value was 2.5 mm, the “Mean remainder of hair length (mm) 20th (day)” value is 8.2 mm and the “Mean remainder of hair length (mm) 30th (day)” value is on record as 7.6 mm. In addition, the “hydrolysis by α-glucosidase” value in series [2] is “hydrolyzed into rutin and D-glucose”.
